Values quoted from earlier work, collected in patent US20140081110A1, “ELECTROPHYSIOLOGICAL DIAGNOSIS AND TREATMENT FOR ASTHMA” (University of Liverpool, priority 2011, published 2014).

System: normal airway
Settings: UK guidance on asthma (British Guideline on the Management of Asthma, Revised January 2012)

For `CC(=O)OC(C)C[N+](C)(C)C` (stereo not shown) [methacholine], the “methacholine dose required to reduce the Forced Expiratory Volume in 1 Second (FEV1) by 20%” value is listed as over 8 mg/mL.
